What was measured:
[1] = tested on: Salmonella typhimurium TA100; experiment: Ames His+ reversion assay, mutagenesis induced by B[a]P (liquid preincubation, S9); assay type: cell-based; conditions: 2.5µg B[a]P, control (0 µg) 248±26.0
Procedure: (§1) Male Sprague-Dawley rats (40 to 45 day old) were fed with a standard laboratory pellet diet and water ad libitum under standard conditions(12h light-12h dark cycle, temp.: 21±2°C). They were treated intraperitoneally with Aroclor 1254 (500mg/kg in corn oil) for 5 consecutive days prior to sacrifice. Rats were killed by CO2 asphyxiation, and their livers were immediately removed and perfused in situ with ice-cooled isotonic KCl solution. The liver tissue was weighed, minced, and homogenized in 3-fold volumes of ice-cooled 0.25M sucrose solution by employing a motorized Potter-Elvehjem glass-Teflon homogenizer. The homogenates were centrifuged at 9,000 X g for 30 minutes and the supernatant(S9 fraction) was used as the source of enzymes.
(§2) The Ames His+ reversion assay was performed in accordance with the liquid preincubation method using Salmonella typhimurium TA98 and TA100 as test strains[see D.M. Maton and B. N. Ames, Mutation Res., 113, pp. 173-221(1983)].
(§3) Each of TA98 and TA100(1 to 2 x 10^9/plate) and 2.5µg of B[a]P dissolved in DMSO were added to the Aroclor 1254-induced rat hepatic postmitochondrial supernatant containing NADPH-generating system obtained above([…] containing about 2mg protein). Various amounts of isopropyl 2-(1,3-dithietan-2-ylidene)-2-[N-(4-methylthiazol-2-yl)carbamoyl]acetate were added thereto, and preincubated at 37°C for 20 minutes.
(§4) The mixture was then diluted with soft agar, poured onto hard agar plates, and incubated for another 48 hours to allow the development of His+ revertant colonies. The data were corrected for the numbers of spontaneous revertant.

[2] = tested on: Salmonella typhimurium TA98; experiment: as above; assay type: cell-based; conditions: 2.5µg B[a]P, control (0 µg) 116±3.6
Procedure: as §1, §2, §3, §4

[3] = tested on: Salmonella typhimurium TA100; experiment: Ames His+ reversion assay, mutagenesis induced by BPDE; assay type: cell-based; conditions: 25nmol BPDE; for No. of His+ revertant/plate: control (0 µg) 706
Procedure: (§5) The Ames His+ reversion assay was performed in accordance with the liquid preincubation method using Salmonella typhimurium TA100 as a test strain[see D.M. Maton and B. N. Ames, Mutation Res., 113, pp. 173-221(1983)].
(§6) 25nmol of BPDE was incubated with S. typhimurium TA100 in the absence or presence of a given amount of isopropyl 2-(1,3-dithietan-2-ylidene)-2-[N-(4-methylthiazol-2-yl)carbamoyl]acetate at 37 °C for 20 minutes.
(§7) Then, the mixture was diluted with soft agar, poured onto hard agar plates, and incubated for another 48 hours to allow the development of His+ revertant colonies. The data are expressed as average of values from duplicate analysis.

[4] = tested on: Salmonella typhimurium TA100 and TA1535; experiment: Ames His+ reversion assay, mutagenesis induced by VC (Figure 1); assay type: cell-based; conditions: vinyl carbamate 10µmol; compound 2.5µg and 25µg; values only in Figure 1
Procedure: as §1, §2
[…] Various amounts of isopropyl 2-(1,3-dithietan-2-ylidene)-2-[N-(4-methylthiazol-2-yl)carbamoyl]acetate were added thereto, and preincubated at 37°C for 20 minutes.
The mixture was then diluted with soft agar, poured onto hard agar plates, and incubated for another 48 hours to allow the development of His+ revertant colonies. The data were corrected for the numbers of spontaneous revertant. […]

[5] = tested on: Salmonella typhimurium TA100; experiment: Ames His+ reversion assay, mutagenesis induced by VC epoxide; assay type: cell-based
Procedure: as §5, §6, §7
The procedure of Test Example 1-2 was repeated except that Salmonella typhimurium TA100 was used as a test strain and vinyl carbamate epoxide(25 and 50nmol) was used as mutagens.

calf thymus DNA = experiment: Covalent binding test of [3H]-B[a]P to DNA; assay type: biochemical; conditions: 37°C, 30 minutes, control (0 µM) 60±7.1
Procedure: 2ml of the mixture of 50mM potassium phosphate buffer (pH 7.4) containing 0.25µg of [^3H]-B[a]P(specific activity: 12.35mCi/mmol), 2mg of calf thymus DNA, 25mg of EDTA, NADPH(0.65mM), and 4 mg of hepatic postmitochondrial supernatant was incubated with isopropyl 2-(1,3-dithietan-2-ylidene)-2-[N-(4-methylthiazol-2yl)carbamoyl]acetate of various concentrations at 37°C for 30 minutes.
DNA was isolated by ethanol precipitation after the removal of proteins. DNA pellets thus obtained were successively rinsed with 75% ethanol containing 1% NaCl, 75% ethanol, absolute ethanol, acetone and ethyl ether, and then dried.
Dried DNA samples were dissolved in 15 mM NaCl-1.5mM sodium citrate buffer(pH 7.0). The DNA concentration was determined by diphenylamine method using calf thymus DNA as a standard[see K. Burton and G.B. Peterson, Biochem. J., 75, pp.17-27, 1960].
Aliqouts of DNA solutions were dissolved in Solvable(Du Pont/NEN Research Products, Boston, MA). After neutralization with glacial acetic acid, the levels of radio-labeled hydrocarbons covalently bound to DNA were determined by employing a liquid scintillation counter with the addition of Liquescent(National Diagnostics, Manville, NJ) as a cocktail.

mouse skin tumor [6] = experiment: Mouse skin tumor test, carcinogenesis induced by VC (topical initiation, TPA promotion); assay type: in vivo, female ICR mice; conditions: VC 5.8 µmol topical, pretreatment 2.5µmol compound or 8µmol diallyl sulfide
Procedure: (§8) Inhibitory effect of isopropyl 2-(1,3-dithietan-2-ylidene)-2-[N-(4-methylthiazol-2-yl)carbamoyl]acetate on mouse skin tumor was also investigated.
The dorsal region of female ICR mice (6- to 7-week old) was shaved. Groups of 30 mice were administered with 2.5µmol isopropyl 2-(1,3-dithietan-2-ylidene)-2-[N-(4-methylthiazol-2-yl)carbamoyl]acetate in 0.2% sodium carboxymethyl cellulose or 8µmol of diallyl sulfide in 0.1M sterilized potassium phosphate buffer. After 10 minutes, the mice were administered topically with VC(5.8 µmol) in 0.2ml acetone containing 15% DMSO. Control group was administered with VC alone.
One week after the initiation, the mice were administered topically with 15nmol TPA(12-O-tetradecanoyl phorbol-13-acetate)in 0.1 ml acetone twice a week to promote carcinogenic process.
Tumors of at least 1 mm in diameter were counted and recorded every other week. The results are shown in Table V. Numbers in parentheses indicate the % of tumor bearing mice.

mouse skin tumor [7] = experiment: Mouse skin tumor test, carcinogenesis induced by B[a]P or VC (gavage pretreatment, TPA promotion); assay type: in vivo, female CD-1 mice; conditions: 16 weeks, diallyl sulfide 0.2mg/10µl/g body wt.
Procedure: as §8
trioctanoin, or isopropyl 2-(1,3-dithietan-2-ylidene)-2-[N-(4-methylthiazol-2-yl)carbamoyl]acetate(0.15mg/10µl/g body wt.) or diallyl sulfide(0.2mg/10µl/g body wt.) suspended in trioctanoin were administered to female CD-1 mice(6 weeks old) by gastric gavage method 24 hours and 1 hour prior to the intraperitoneal injection of B[a]P(0.3µmol) or VC(11.5µmol) in 0.2ml acetone or the same volume of acetone alone.
One week after the initiation, animals were administered topically with 15nmol TPA(12-O-tetradecanoyl phorbol-13-acetate) in 0.1ml acetone twice a week to promote carcinogenesis.
Tumors of at least 1 mm in diameter were counted and recorded at 16 weeks after initiation.

[8] = initiator B[a]P 0.3µmol, gavage pretreatment compound 0.15mg/10µl/g, trioctanoin control 6.7±5.1
[9] = initiator B[a]P 0.3µmol, gavage pretreatment compound 0.15mg/10µl/g, trioctanoin control 92
[10] = initiator VC 11.5µmol, gavage pretreatment compound 0.15mg/10µl/g, trioctanoin control 1.0±1.6
[11] = initiator VC 11.5µmol, gavage pretreatment compound 0.15mg/10µl/g, trioctanoin control 58
[12] = initiator acetone alone, gavage 24 hours and 1 hour before, compound 0.15mg/10µl/g

`Cc1csc(NC(=O)C(C(=O)OC(C)C)=C2SCS2)n1` [Compound, Isopropyl 2-(1,3-dithietan-2-ylidene)-2-[N-(4-methylthiazol-2-yl)carbamoyl]acetate] was tested, and the “No. of His+ revertant/plate” value ([1]; compound 1 µg) was 205±23.1, the “No. of His+ revertant/plate” value ([1]; compound 5 µg) was 140±4.6 and the “No. of His+ revertant/plate” value ([1]; compound 25 µg) was 93±8.7. The “No. of His+ revertant/plate” value ([2]; compound 1 µg) was 84±16.1, the “No. of His+ revertant/plate” value ([2]; compound 5 µg) was 48±3.2 and the “No. of His+ revertant/plate” value ([2]; compound 25 µg) was 23±2.5. The “% inhibition” value ([3]; compound 2.5 µg) was 58%, the “No. of His+ revertant/plate” value ([3]; compound 2.5 µg) was 301 and the “% inhibition” value ([3]; compound 10 µg) was 69%. The “No. of His+ revertant/plate” value ([3]; compound 10 µg) was 217, the “% inhibition” value ([3]; compound 25 µg) was 74% and the “No. of His+ revertant/plate” value ([3]; compound 25 µg) was 180. The “effect on mutagenesis induced by VC” value [4] was “dose-dependently inhibit”, the “No. of His+ revertant/plate” value ([5]; VC epoxide 25 nmol, compound 2.5 µg, control (0 µg) 283) was 247 and the “No. of His+ revertant/plate” value ([5]; VC epoxide 25 nmol, compound 10 µg, control (0 µg) 283) was 239. For the same molecule, the “No. of His+ revertant/plate” value ([5]; VC epoxide 25 nmol, compound 25 µg, control (0 µg) 283) was 201, the “No. of His+ revertant/plate” value ([5]; VC epoxide 50 nmol, compound 2.5 µg, control (0 µg) 598) was 541 and the “No. of His+ revertant/plate” value ([5]; VC epoxide 50 nmol, compound 10 µg, control (0 µg) 598) was 509. For the same molecule, the “No. of His+ revertant/plate” value ([5]; VC epoxide 50 nmol, compound 25 µg, control (0 µg) 598) was 471, the “Covalent DNA binding” value (calf thymus DNA; compound 5 µM) was 22 ± 2.0 pmol and the “Covalent DNA binding” value (calf thymus DNA; compound 50 µM) was 16 ± 3.2 pmol. For the same molecule, the “Average No. of papillomas/mouse” value (mouse skin tumor [6]; week 14, VC alone 0.9±1.1) was 0.2±0.5, the “% of tumor bearing mice” value (mouse skin tumor [6]; week 14, VC alone 53) was 20% and the “Average No. of papillomas/mouse” value (mouse skin tumor [6]; week 16, VC alone 1.4±1.7) was 0.4±0.7. The “% of tumor bearing mice” value (mouse skin tumor [6]; week 16, VC alone 63) was 30%, the “Average No. of papillomas/mouse” value (mouse skin tumor [6]; week 18, VC alone 1.8±1.9) was 0.6±0.9 and the “% of tumor bearing mice” value (mouse skin tumor [6]; week 18, VC alone 67) was 40%. The “Average No. of papillomas/mouse” value (mouse skin tumor [6]; week 20, VC alone 2.4±2.1) was 0.8±1.0, the “% of tumor bearing mice” value (mouse skin tumor [6]; week 20, VC alone 70) was 50% and the “Ave. No. of tumor/mouse” value (mouse skin tumor [7]; [8]) was 2.8±3.4. The “% mice with papillomas” value (mouse skin tumor [7]; [9]) was 72%, the “Ave. No. of tumor/mouse” value (mouse skin tumor [7]; [10]) was 0.5±0.8 and the “% mice with papillomas” value (mouse skin tumor [7]; [11]) was 36%. For the same molecule, the “% mice with papillomas” value (mouse skin tumor [7]; [12]) was 0% and the “Ave. No. of tumor/mouse” value (mouse skin tumor [7]; [12]) was 0.
In the case of `C=CCSCC=C` [Diallyl sulfide, reference compound], the “Average No. of papillomas/mouse” value (mouse skin tumor [6]; week 14, VC alone 0.9±1.1) is reported as 0.2±0.5, the “% of tumor bearing mice” value (mouse skin tumor [6]; week 14, VC alone 53) is reported as 17% and the “Average No. of papillomas/mouse” value (mouse skin tumor [6]; week 16, VC alone 1.4±1.7) is reported as 0.5±0.9. The “% of tumor bearing mice” value (mouse skin tumor [6]; week 16, VC alone 63) was 30%, the “Average No. of papillomas/mouse” value (mouse skin tumor [6]; week 18, VC alone 1.8±1.9) was 0.7±1.1 and the “% of tumor bearing mice” value (mouse skin tumor [6]; week 18, VC alone 67) was 37%. The “Average No. of papillomas/mouse” value (mouse skin tumor [6]; week 20, VC alone 2.4±2.1) was 0.9±1.1, the “% of tumor bearing mice” value (mouse skin tumor [6]; week 20, VC alone 70) was 50% and the “Ave. No. of tumor/mouse” value (mouse skin tumor [7]; [8]) was 4.0±5.6. The “% mice with papillomas” value (mouse skin tumor [7]; [9]) was 64%, the “Ave. No. of tumor/mouse” value (mouse skin tumor [7]; [10]) was 0.4±0.9 and the “% mice with papillomas” value (mouse skin tumor [7]; [11]) was 28%. The “% mice with papillomas” value (mouse skin tumor [7]; [12]) was 0% and the “Ave. No. of tumor/mouse” value (mouse skin tumor [7]; [12]) was 0.
